Read-outs that look alike come from different tables or passages of the source.
Key:
[1] = system: subjects with persistent uncontrolled asthma; assay: Randomised, double-blind, placebo-controlled parallel group study of fluticasone furoate in subjects with persistent uncontrolled asthma (8 weeks); format: in vivo, human
Method: In one such study, the safety and efficacy of four doses of fluticasone furoate in subjects with persistent uncontrolled asthma were evaluated. In this study, which was a randomised, double-blind, placebo-controlled, parallel group study, 598 patients received one of six treatments: fluticasone furoate (25, 50, 100 or 200 mcg) once daily, fluticasone propionate 100 mcg twice daily or placebo for 8 weeks. The primary endpoint was change from baseline in trough (pre-dose) forced expiratory volume in 1 second (FEV1) at Week 8. […] This study supports the use of fluticasone furoate (100 or 200 mcg once-daily) for the treatment of persistent uncontrolled asthma.

subjects with COPD [2] = settings: 400 mcg and 1200 mcg once daily, 14 days; cited from earlier work
subjects with COPD [3] = settings: 28-day study; cited from earlier work

SMILES | increase in trough FEV1 from baseline at Week 8 relative to placebo ([1]; 100 mcg once daily) [mL] | increase in trough FEV1 from baseline at Week 8 relative to placebo ([1]; 200 mcg once daily) [mL] | tolerability (subjects with COPD [2]) | tolerability (subjects with COPD [3])
C[C@@H]1C[C@H]2[C@@H]3C[C@H](F)C4=CC(=O)C=C[C@]4(C)[C@@]3(F)[C@@H](O)C[C@]2(C)[C@@]1(OC(=O)c1ccco1)C(=O)SCF [Compound 2, 6α,9α-difluoro-17α-[(2-furanylcarbonyl)oxy]-11β-hydroxy-16α-methyl-3-oxo-androsta-1,4-diene-17β-carbothioic acid S-fluoromethyl ester] | > 200 | > 200 | – | –
COc1cc(NC(=O)CCN2CCC(OC(=O)Nc3ccccc3-c3ccccc3)CC2)c(Cl)cc1CNC[C@H](O)c1ccc(O)c2[nH]c(=O)ccc12 [Compound 1, biphenyl-2-ylcarbamic acid 1-[2-(2-chloro-4-{[(R)-2-hydroxy-2-(8-hydroxy-2-oxo-1,2-dihydroquinolin-5-yl)ethylamino]methyl}-5-methoxyphenylcarbamoyl)ethyl]piperidin-4-yl ester] | – | – | well tolerated | well tolerated
